# In PubChem BioAssay AID588662 (The Scripps Research Institute Molecular Screening Center, 2011):
# Activity calls are given as the source filed them.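 The calls were made as follows: active = p38 protein level shifted at least 30% from solvent-only control, either down or up; inactive = shift under 30% either way.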
# Molecular target: Mitogen-activated protein kinase 14 (Homo sapiens) (UniProt Q16539)
# Assay: altered p38 MAPK protein abundance – SW620 cells, chemiluminescent western blot, powder samples, counter-screen for KLF5 inhibitor project, late-stage follow-up (AID 588662)
# Conditions: 24 h, at 10 µM
# Sequence of Mitogen-activated protein kinase 14 (Homo sapiens) (Q16539 whole entry, looked up): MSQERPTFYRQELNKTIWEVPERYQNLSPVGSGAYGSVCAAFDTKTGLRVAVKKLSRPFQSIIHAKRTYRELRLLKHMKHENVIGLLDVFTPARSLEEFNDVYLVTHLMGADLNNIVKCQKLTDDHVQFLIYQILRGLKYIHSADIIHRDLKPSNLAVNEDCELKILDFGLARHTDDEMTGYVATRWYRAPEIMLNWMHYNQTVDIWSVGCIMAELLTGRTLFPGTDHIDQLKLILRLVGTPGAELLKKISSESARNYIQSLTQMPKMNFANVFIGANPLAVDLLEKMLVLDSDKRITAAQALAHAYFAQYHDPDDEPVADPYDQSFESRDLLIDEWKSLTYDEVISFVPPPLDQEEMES
row,Compound,inhibition
1,CN(C(=O)CNC(=O)/C=C/c1cccc(Cl)c1)C1CCS(=O)(=O)CC1,-41.1%
2,CN(C(=O)COC(=O)/C=C/c1cccc([N+](=O)[O-])c1)C1CCS(=O)(=O)C1 (stereo not drawn),-3.03% (inactive)
3,CN(C(=O)CNC(=O)/C=C/c1cccc(Cl)c1)C1CCS(=O)(=O)C1 (stereo not drawn),1.69% (inactive)
